Results from ChEMBL document CHEMBL6087385, “Synthesis and biological evaluation of Ribo 7-N/O/S pyrimidine 9-deaza C-nucleoside analogs as new antiviral agents for inhibiting HCV RNA-dependent RNA polymerases” (Eur J Med Chem, 2024).
pEC50: −log10 of the molar value.

Legend:
[1] = Tmax in Sprague-Dawley rat at 5 mg/kg, po by reverse phase chromatography; type: ADME, organism-based; details: in vivo
[2] = Toxicity in po dosed rat assessed as no observable adverse effect level; type: organism-based; details: in vivo
Hepatitis C virus [3] = experiment: Anti-viral activity against HCV genotype 2a infected in Lunet-CD81 cells; type: functional, organism-based, Hepacivirus hominis
[4] = Drug level in Sprague-Dawley rat liver assessed as triphosphate metabolite concentration at 2 mg/kg, iv measured after 1 hr in presence of ATP by LC-MS/MS analysis; type: ADME, organism-based; details: in vivo, read-out: Ct
Hepatitis C virus [5] = experiment: Antiviral activity against HCV genotype 1a infected in GLuc-1 cells; type: functional, organism-based, Hepacivirus hominis
[6] = Metabolic stability in human liver microsome assessed as half life in presence of NADPH; type: ADME; details: liver microsomes
[7] = Metabolic stability in cryopreserved Non human primate hepatocyte assessed as half life in presence of NADPH; type: ADME, cell-based; details: cryopreserved hepatocytes
[8] = Metabolic stability in cryopreserved dog hepatocyte assessed as half life in presence of NADPH; type: ADME, cell-based, Canis lupus familiaris; details: cryopreserved hepatocytes
[9] = AUC in female mouse at 1 mg/kg, iv by reverse phase chromatography; type: ADME, organism-based; details: in vivo
[10] = Metabolic stability in Non human primate liver microsome assessed as half life in presence of NADPH; type: ADME; details: liver microsomes
[11] = Clearance in Cynomolgus monkey at 1 mg/kg, iv by reverse phase chromatography; type: ADME, organism-based, Macaca fascicularis; details: in vivo
[12] = Toxicity in Sprague-Dawley rat assessed as diarrhea at 250 mg/kg, po administered as single dose and measured after 14 days; type: organism-based; details: in vivo, 336 h, time 14 day
[13] = Cmax in Sprague-Dawley rat at 1 mg/kg, iv by reverse phase chromatography; type: ADME, organism-based; details: in vivo
[14] = Half life in Cynomolgus monkey at 10 mg/kg, po administered for 7 days by reverse phase chromatography; type: ADME, organism-based, Macaca fascicularis; details: in vivo, time 7 day
[15] = Tmax in Sprague-Dawley rat at 10 mg/kg, po by reverse phase chromatography; type: ADME, organism-based; details: in vivo
[16] = AUC in Cynomolgus monkey at 10 mg/kg, po administered for 7 days by reverse phase chromatography; type: ADME, organism-based, Macaca fascicularis; details: in vivo, time 7 day
[17] = Toxicity in dog assessed as increase in QTc interval at 1 to 5 mg/kg, po measured after 3 hrs; type: organism-based, Canis lupus familiaris; details: in vivo, dose 1-5 mg/kg
[18] = Toxicity in Sprague-Dawley rat assessed as weight loss at 150 mg/kg, po administered as single dose and measured after 14 days; type: organism-based; details: in vivo, 336 h, time 14 day
[19] = Toxicity in rat assessed as effect on respiratory endpoint at 1 to 9 mg/kg, po; type: organism-based; details: in vivo, dose 1-9 mg/kg
[20] = Drug metabolism in human Hepatocyte cells assessed as triphosphate metabolite formation at 10 uM measured upto 24 hrs by HPLC-MS analysis; type: ADME, cell-based; details: hepatocytes
[21] = Toxicity in rat assessed as change in body weight at 1 to 9 mg/kg, po; type: organism-based; details: in vivo, dose 1-9 mg/kg
[22] = Tmax in Cynomolgus monkey at 10 mg/kg, po administered for 7 days by reverse phase chromatography; type: ADME, organism-based, Macaca fascicularis; details: in vivo, time 7 day
[23] = Toxicity in Sprague-Dawley rat assessed as weight loss at 100 mg/kg, po administered as single dose and measured after 14 days; type: organism-based; details: in vivo, 336 h, time 14 day
[24] = Toxicity in Sprague-Dawley rat assessed as anogenital staining at 90 mg/kg, po administered as single dose and measured after 14 days; type: organism-based; details: in vivo, 336 h, time 14 day
[25] = Toxicity in Cynomolgus monkey assessed as change in ECG at 100 mg/kg, po administered twice a day; type: organism-based, Macaca fascicularis; details: in vivo
[26] = Cmax in female mouse at 1 mg/kg, iv by reverse phase chromatography; type: ADME, organism-based; details: in vivo
[27] = Volume of distribution in Sprague-Dawley rat at 1 mg/kg, iv by reverse phase chromatography; type: ADME, organism-based; details: in vivo
[28] = Clearance in Sprague-Dawley rat at 1 mg/kg, iv by reverse phase chromatography; type: ADME, organism-based; details: in vivo
[29] = Cmax in Cynomolgus monkey at 1 mg/kg, iv by reverse phase chromatography; type: ADME, organism-based, Macaca fascicularis; details: in vivo, time 7 day
[30] = Toxicity in Cynomolgus monkey assessed as change in ECG at 100 to 500 mg/kg, po administered as single dose; type: organism-based, Macaca fascicularis; details: in vivo, dose 100-500 mg/kg
[31] = Oral bioavailability in Cynomolgus monkey at 10 mg/kg administered for 7 days by reverse phase chromatography; type: ADME, organism-based, Macaca fascicularis; details: in vivo, time 7 day
[32] = Toxicity in Sprague-Dawley rat assessed as eyes and nares staining at 90 mg/kg, po administered as single dose and measured after 14 days; type: organism-based; details: in vivo, 336 h, time 14 day
[33] = Toxicity in Cynomolgus monkey assessed as weight loss at 100 mg/kg, po administered twice a day; type: organism-based, Macaca fascicularis; details: in vivo
[34] = Toxicity in Sprague-Dawley rat assessed as weight loss at 250 mg/kg, po administered as single dose and measured after 14 days; type: organism-based; details: in vivo, 336 h, time 14 day
[35] = Toxicity in Sprague-Dawley rat assessed as weight loss at 90 mg/kg, po administered as single dose and measured after 14 days; type: organism-based; details: in vivo, 336 h, time 14 day
[36] = AUC (0 to infinity) in Sprague-Dawley rat at 5 mg/kg, po by reverse phase chromatography; type: ADME, organism-based; details: in vivo
[37] = Genotoxicity in mouse L5178Y cells assessed as increase in forward mutation at thymidine kinase locus measured after 4 hrs; type: toxicity, cell-based
[38] = AUC (0 to infinity) in Sprague-Dawley rat at 10 mg/kg, po by reverse phase chromatography; type: ADME, organism-based; details: in vivo
[39] = Half life in Cynomolgus monkey at 1 mg/kg, iv by reverse phase chromatography; type: ADME, organism-based, Macaca fascicularis; details: in vivo
[40] = Volume of distribution in Cynomolgus monkey at 1 mg/kg, iv by reverse phase chromatography; type: ADME, organism-based, Macaca fascicularis; details: in vivo
[41] = AUC in female mouse at 5 mg/kg, po by reverse phase chromatography; type: ADME, organism-based; details: in vivo
[42] = molecular target: hERG potassium channel (KCNH2) (Homo sapiens, UniProt Q12809); experiment: Inhibition of hERG potassium channel expressed in HEK cells at 100 uM relative to control; type: toxicity, cell-based; details: HEK cells expressing hERG
Sequence of hERG potassium channel (KCNH2) (Q12809 whole entry): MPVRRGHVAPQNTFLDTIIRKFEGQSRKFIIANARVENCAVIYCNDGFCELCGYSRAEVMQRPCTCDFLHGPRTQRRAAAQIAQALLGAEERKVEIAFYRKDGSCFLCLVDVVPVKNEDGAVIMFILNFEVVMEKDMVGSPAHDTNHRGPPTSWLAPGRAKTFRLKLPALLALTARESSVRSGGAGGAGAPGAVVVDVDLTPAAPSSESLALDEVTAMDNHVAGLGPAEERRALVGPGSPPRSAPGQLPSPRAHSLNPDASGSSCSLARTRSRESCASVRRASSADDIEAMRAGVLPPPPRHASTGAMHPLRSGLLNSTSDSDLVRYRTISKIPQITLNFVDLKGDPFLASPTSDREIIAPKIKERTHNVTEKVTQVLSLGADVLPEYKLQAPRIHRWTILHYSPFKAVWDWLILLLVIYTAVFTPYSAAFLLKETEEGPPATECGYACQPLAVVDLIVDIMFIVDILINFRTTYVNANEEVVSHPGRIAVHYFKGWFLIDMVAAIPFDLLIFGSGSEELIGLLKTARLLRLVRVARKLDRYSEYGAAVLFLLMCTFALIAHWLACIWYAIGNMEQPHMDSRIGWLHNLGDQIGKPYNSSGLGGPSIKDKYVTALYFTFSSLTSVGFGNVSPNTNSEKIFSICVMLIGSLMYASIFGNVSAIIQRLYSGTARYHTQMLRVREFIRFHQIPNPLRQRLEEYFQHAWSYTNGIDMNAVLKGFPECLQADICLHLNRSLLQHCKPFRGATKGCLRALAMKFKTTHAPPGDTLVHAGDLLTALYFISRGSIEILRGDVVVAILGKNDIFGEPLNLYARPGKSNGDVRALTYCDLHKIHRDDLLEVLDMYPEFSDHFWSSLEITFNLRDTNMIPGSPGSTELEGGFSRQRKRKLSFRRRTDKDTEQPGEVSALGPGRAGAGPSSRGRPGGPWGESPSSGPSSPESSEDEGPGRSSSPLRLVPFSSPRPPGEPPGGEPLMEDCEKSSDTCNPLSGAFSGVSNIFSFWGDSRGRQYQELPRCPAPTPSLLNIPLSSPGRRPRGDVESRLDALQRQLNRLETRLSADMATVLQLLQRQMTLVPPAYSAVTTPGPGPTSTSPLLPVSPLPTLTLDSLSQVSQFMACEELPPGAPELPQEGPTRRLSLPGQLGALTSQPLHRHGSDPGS

Hepatitis C virus [43] = experiment: Anti-viral activity against HCV genotype 1b infected in human Huh-luc cells; type: functional, organism-based, Hepacivirus hominis
[44] = AUC (0 to infinity) in Sprague-Dawley rat at 1 mg/kg, iv by reverse phase chromatography; type: ADME, organism-based; details: in vivo
[45] = Toxicity in Cynomolgus monkey assessed as animal death at 100 to 500 mg/kg, po administered as single dose; type: organism-based, Macaca fascicularis; details: in vivo, dose 100-500 mg/kg
[46] = Drug metabolism in human Huh-luc/neo cells assessed as triphosphate metabolite formation at 10 uM measured after 24 hrs by HPLC-MS analysis; type: ADME, cell-based
[47] = Toxicity in Sprague-Dawley rat assessed as eyes and nares staining at 100 mg/kg, po administered as single dose and measured after 14 days; type: organism-based; details: in vivo, 336 h, time 14 day
[48] = Toxicity in Sprague-Dawley rat assessed as lethargy at 250 mg/kg, po administered as single dose and measured after 14 days; type: organism-based; details: in vivo, 336 h, time 14 day
Hepatitis C virus [49] = experiment: Anti-viral activity against HCV genotype 2a infected in 2aLucNeo-25 cells; type: functional, organism-based, Hepacivirus hominis
[50] = Toxicity in Cynomolgus monkey assessed as animal death at 100 mg/kg, po administered twice a day; type: organism-based, Macaca fascicularis; details: in vivo
[51] = Toxicity in cynomolgus monkey assessed as weight loss at 100 to 500 mg/kg, po administered as single dose; type: organism-based, Macaca fascicularis; details: in vivo, dose 100-500 mg/kg

`C[C@@]1(O)[C@H](O)[C@@H](CO)O[C@H]1c1coc2c(N)ncnc12` showed a Tmax [1] of 0.5 h, an NOAEL [2] of no more than 9 mg/kg and a pEC50 (Hepatitis C virus [3]) of less than 4.30. The concentration [4] was 22.6 µM, the pEC50 (Hepatitis C virus [5]) was 5.27 and the half-life [6] was greater than 1.67 h. It also gave a half-life [7] greater than 1 h, a half-life [8] greater than 1 h and an AUC [9] of 866 ng·h/mL. For the same compound, the half-life [10] was greater than 1.67 h, the clearance [11] was 8.56 mL/min/kg and the Activity [12] was “Non-toxic”. It also gave a Cmax [13] of 1150 ng/mL, a half-life [14] of 26.3 h and a Tmax [15] of 0.5 h. The AUC at 168 h [16] was 7260 ng·h/mL, the Activity [17] was “Non-toxic” and the Activity [18] was “Toxic”. The Activity [19] was “Non-toxic”, the Drug metabolism [20] was “metabolite_detected” and the Activity [21] was “Non-toxic”. The Tmax [22] was 0.7 h, the Activity [23] was “Non-toxic” and the Activity [24] was “Non-toxic”. For the same compound, the Activity [25] was “Non-toxic”, the Cmax [26] was 1130 ng/mL and the Vd [27] was 33.2 L/kg. For the same compound, the clearance [28] was 17.6 mL/min/kg, the Cmax [29] was 3200 ng/mL and the Activity [30] was “Non-toxic”. The bioavailability [31] was 37.6%, the Activity [32] was “Non-toxic” and the Activity [33] was “Non-toxic”. The Activity [34] was “Non-toxic”, the Activity [35] was “Toxic” and the AUC(0-inf) [36] was 2150 ng·h/mL. The Activity [37] was “Toxic”, the AUC(0-inf) [38] was 5650 ng·h/mL and the half-life [39] was 24 h. The Vd [40] was 8.67 L/kg, the AUC [41] was 3250 ng·h/mL and the inhibition at 100 µM [42] was 1.3%. For the same compound, the pEC50 (Hepatitis C virus [43]) was 5.33, the AUC(0-inf) [44] was 947 ng·h/mL and the Activity [45] was “Non-toxic”. The Drug metabolism [46] was “metabolite_detected”, the Activity [47] was “Non-toxic” and the Activity [48] was “Non-toxic”. The pEC50 (Hepatitis C virus [49]) was less than 4.30, the Activity [50] was “Non-toxic” and the Activity [51] was “Non-toxic”.
